Laboratory results taken from patent US5747500A, “Antiviral 2, 4-pyrimidinedione derivatives” (priority 1993, dated 1998).
Values after ≈ are worked out from the molar mass of the structure shown.

Tests used:
HIV = test: inhibition of HIV-induced cytopathic effect in MT-4 cells (MTT method); assay type: cell-based; conditions: for EC50: Human immunodeficiency virus 1, MT4, HIV-infected MT-4 cells, 1000 CCID50, 4 or 5 day incubation at 37° C., MTT method, read-out: ED50: Effective concentration for the inhibition of the proliferation of HIV by 50%; for S.I.: Selectivity index (CD50/ED50): ratio CD50/ED50, MT-4 cells
Description: The anti-HIV assays were based on the inhibition of the virus-induced cytopathic effect in MT-4 cells as described in J. Virol. Methods, 16, 171 (1987). Briefly, MT-4 cells were suspended in culture medium at 2.5×10^5 cells/ml and infected with 1000 CCID50 (50% cell culture infective dose) of HIV. Immediately, after virus infection, 100 μl of the cell suspension was brought into each well of a flat-bottomedmicrotiter tray containing various concentrations of the test compounds. After a 4 or 5 day incubation at 37° C., the number of viable cells was determined by the 3-(4,5-dimethylthiazol-2-yl)-2,5-diphenyltetrazoliumbromide (MTT) method, as disclosed in J. Virol. Methods, 20, 309 (1988).
ED50 : Effective concentration for the inhibition of the
proliferation of HIV by 50%

[1] = cytotoxicity: viability of mock-infected MT-4 host cells (MTT method); assay type: cell-based; conditions: human, mt-4 cells, read-out: CD50: Cytotoxic concentration that causes death of cells by 50%
Description: The cytotoxicity of the compounds of the present invention was assessed in parallel with their antiviral activity. It was based on the viability of mock-infected host cells as determined by the MTT methods (se J. Virol. Methods, 20, 309 (1988)).
CD50 : Cytotoxic concentration that causes death of cells by 50%

CCc1c(Cc2cc(C)cc(C)c2)n(CC#Cc2ccccc2)c(=O)[nH]c1=O [Example 40, 1-(3-phenyl-2-propynyl)-5-ethyl-6-(3,5-dimethylbenzyl)-2,4-pyrimidinedione]
EC50 (HIV): < 0.009 µg/mL
S.I.: Selectivity index (CD50/ED50) (HIV): > 557
CC50 [1]: 5.02 µg/mL (≈ 13.5 µM)

C/C=C/Cn1c(Cc2cc(C)cc(C)c2)c(C(C)C)c(=O)[nH]c1=O [Example 41]
EC50 (HIV): 0.01 µg/mL (≈ 0.0306 µM)
S.I.: Selectivity index (CD50/ED50) (HIV): > 2,104
CC50 [1]: 21 µg/mL (≈ 64.5 µM)

Cc1cc(C)cc(Cc2c(C(C)C)c(=O)[nH]c(=O)n2CC#Cc2ccccc2)c1 [Example 42, 1-(3-phenyl-2-propynyl)-5-isopropyl-6-(3,5-dimethylbenzyl)-2,4-pyrimidinedione]
EC50 (HIV): < 0.009 µg/mL
S.I.: Selectivity index (CD50/ED50) (HIV): > 824
CC50 [1]: 7.42 µg/mL (≈ 19.2 µM)

C=CCn1c(C(=O)c2cc(C)cc(C)c2)c(CC)c(=O)[nH]c1=O [Example 43, 1-allyl-5-ethyl-6-(3,5-dimethylbenzoyl)-2,4-pyrimidinedione]
EC50 (HIV): < 0.17 µg/mL
S.I.: Selectivity index (CD50/ED50) (HIV): > 320
CC50 [1]: 54.5 µg/mL (≈ 175 µM)

C/C=C/Cn1c(C(=O)c2cc(C)cc(C)c2)c(CC)c(=O)[nH]c1=O [Example 44]
EC50 (HIV): < 0.01 µg/mL
S.I.: Selectivity index (CD50/ED50) (HIV): > 3,439
CC50 [1]: 34.4 µg/mL (≈ 105 µM)

CCc1c(C(=O)c2cc(C)cc(C)c2)n(C/C=C/c2ccccc2)c(=O)[nH]c1=O [Example 45, 1-(trans-cinnamyl)-5-ethyl-6-(3,5-dimethylbenzoyl)-2,4-pyrimidinedione]
EC50 (HIV): < 0.009 µg/mL
S.I.: Selectivity index (CD50/ED50) (HIV): > 663
CC50 [1]: 5.97 µg/mL (≈ 15.4 µM)

CC/C=C/Cn1c(C(=O)c2cc(C)cc(C)c2)c(CC)c(=O)[nH]c1=O [Example 46]
EC50 (HIV): < 0.009 µg/mL
S.I.: Selectivity index (CD50/ED50) (HIV): > 1,015
CC50 [1]: 9.14 µg/mL (≈ 26.8 µM)

CCc1c(C(=O)c2cc(C)cc(C)c2)n(C/C=C/CCl)c(=O)[nH]c1=O [Example 47]
EC50 (HIV): < 0.009 µg/mL
S.I.: Selectivity index (CD50/ED50) (HIV): > 774
CC50 [1]: 6.7 µg/mL (≈ 18.6 µM)

C#CCn1c(C(=O)c2cc(C)cc(C)c2)c(CC)c(=O)[nH]c1=O [Example 48, 1-propargyl-5-ethyl-6-(3,5-dimethylbenzoyl)-2,4-pyrimidinedione]
EC50 (HIV): < 0.39 µg/mL
S.I.: Selectivity index (CD50/ED50) (HIV): > 93
CC50 [1]: 36.4 µg/mL (≈ 117 µM)

CC#CCn1c(C(=O)c2cc(C)cc(C)c2)c(CC)c(=O)[nH]c1=O [Example 49, 1-(2-butynyl)-5-ethyl-6-(3,5-dimethylbenzoyl)-2,4-pyrimidinedione]
EC50 (HIV): < 0.032 µg/mL
S.I.: Selectivity index (CD50/ED50) (HIV): > 162
CC50 [1]: 5.2 µg/mL (≈ 16 µM)

CCc1c(C(=O)c2cc(C)cc(C)c2)n(CC#Cc2ccccc2)c(=O)[nH]c1=O [Example 50, 1-(3-phenyl-2-propynyl)-5-ethyl-6-(3,5-dimethylbenzoyl)-2,4-pyrimidinedione]
EC50 (HIV): < 0.009 µg/mL
S.I.: Selectivity index (CD50/ED50) (HIV): > 482
CC50 [1]: 4.34 µg/mL (≈ 11.2 µM)

C/C=C/Cn1c(C(=O)c2cc(C)cc(C)c2)c(C(C)C)c(=O)[nH]c1=O [Example 51]
EC50 (HIV): < 0.01 µg/mL
S.I.: Selectivity index (CD50/ED50) (HIV): > 2,473
CC50 [1]: 22.3 µg/mL (≈ 65.4 µM)

Cc1cc(C)cc(C(=O)c2c(C(C)C)c(=O)[nH]c(=O)n2C/C=C/c2ccccc2)c1 [Example 52]
EC50 (HIV): < 0.009 µg/mL
S.I.: Selectivity index (CD50/ED50) (HIV): > 1,083
CC50 [1]: 9.75 µg/mL (≈ 24.2 µM)

CC/C=C/Cn1c(C(=O)c2cc(C)cc(C)c2)c(C(C)C)c(=O)[nH]c1=O [Example 53]
EC50 (HIV): < 0.009 µg/mL
S.I.: Selectivity index (CD50/ED50) (HIV): > 665
CC50 [1]: 5.99 µg/mL (≈ 16.9 µM)

COC(=O)/C=C/Cn1c(C(=O)c2cc(C)cc(C)c2)c(C(C)C)c(=O)[nH]c1=O [Example 54]
EC50 (HIV): < 0.01 µg/mL
S.I.: Selectivity index (CD50/ED50) (HIV): > 3,005
CC50 [1]: 30.1 µg/mL (≈ 78.2 µM)

CC#CCn1c(C(=O)c2cc(C)cc(C)c2)c(C(C)C)c(=O)[nH]c1=O [Example 55, 1-(2-butynyl)-5-isopropyl-6-(3,5-dimethylbenzoyl)-2,4-pyrimidinedione]
EC50 (HIV): < 0.32 µg/mL
S.I.: Selectivity index (CD50/ED50) (HIV): > 130
CC50 [1]: 41.7 µg/mL (≈ 123 µM)

Cc1cc(C)cc(C(=O)c2c(C(C)C)c(=O)[nH]c(=O)n2CC#Cc2ccccc2)c1 [Example 56, 1-(3-phenyl-2-propynyl)-5-isopropyl-6-(3,5-dimethylbenzoyl)-2,4-pyrimidinedione]
EC50 (HIV): < 0.009 µg/mL
S.I.: Selectivity index (CD50/ED50) (HIV): > 75.1
CC50 [1]: 6.76 µg/mL (≈ 16.9 µM)

C=CCn1c(Oc2cc(C)cc(C)c2)c(CC)c(=O)[nH]c1=O [Example 57, 1-allyl-5-ethyl-6-(3,5-dimethylphenoxy)-2,4-pyrimidinedione]
EC50 (HIV): < 0.32 µg/mL
S.I.: Selectivity index (CD50/ED50) (HIV): > 132
CC50 [1]: 42.4 µg/mL (≈ 141 µM)

CC#CCn1c(Oc2cc(C)cc(C)c2)c(CC)c(=O)[nH]c1=O [Example 58]
EC50 (HIV): < 0.34 µg/mL
S.I.: Selectivity index (CD50/ED50) (HIV): > 143
CC50 [1]: 48.9 µg/mL (≈ 157 µM)

CCc1c(Oc2cc(C)cc(C)c2)n(C/C=C/c2ccccc2)c(=O)[nH]c1=O [Example 59, 1-(trans-cinnamyl)-5-ethyl-6-(3,5-dimethylphenoxy)-2,4-pyrimidinedione]
EC50 (HIV): < 0.23 µg/mL
S.I.: Selectivity index (CD50/ED50) (HIV): > 167
CC50 [1]: 38.6 µg/mL (≈ 102 µM)

C#CCn1c(Oc2cc(C)cc(C)c2)c(CC)c(=O)[nH]c1=O [Example 60, 1-propargyl-5-ethyl-6-(3,5-dimethylphenoxy)-2,4-pyrimidinedione]
EC50 (HIV): < 0.62 µg/mL
S.I.: Selectivity index (CD50/ED50) (HIV): > 25
CC50 [1]: 15.8 µg/mL (≈ 52.8 µM)

CCc1c(Oc2cc(C)cc(C)c2)n(CC#Cc2ccccc2)c(=O)[nH]c1=O [Example 61, 1-(3-phenyl-2-propynyl)-5-ethyl-6-(3,5-dimethylphenoxy)-2,4-pyrimidinedione]
EC50 (HIV): < 0.009 µg/mL
S.I.: Selectivity index (CD50/ED50) (HIV): > 1,033
CC50 [1]: 9.3 µg/mL (≈ 24.8 µM)

CC/C=C/Cn1c(Oc2cc(C)cc(C)c2)c(CC)c(=O)[nH]c1=O [Example 62]
EC50 (HIV): < 0.032 µg/mL
S.I.: Selectivity index (CD50/ED50) (HIV): > 251
CC50 [1]: 8.05 µg/mL (≈ 24.5 µM)

CCc1c(Oc2cc(C)cc(C)c2)n(C/C=C/C(=O)OC)c(=O)[nH]c1=O [Example 63]
EC50 (HIV): < 0.032 µg/mL
S.I.: Selectivity index (CD50/ED50) (HIV): > 224
CC50 [1]: 7.17 µg/mL (≈ 20 µM)

C/C=C/Cn1c(Oc2cc(C)cc(C)c2)c(C(C)C)c(=O)[nH]c1=O [Example 64]
EC50 (HIV): < 0.009 µg/mL
S.I.: Selectivity index (CD50/ED50) (HIV): > 1,098
CC50 [1]: 9.89 µg/mL (≈ 30.1 µM)

Cc1cc(C)cc(Oc2c(C(C)C)c(=O)[nH]c(=O)n2C/C=C/c2ccccc2)c1 [Example 65]
EC50 (HIV): < 0.009 µg/mL
S.I.: Selectivity index (CD50/ED50) (HIV): > 893
CC50 [1]: 8.04 µg/mL (≈ 20.6 µM)

COC(=O)/C=C/Cn1c(Oc2cc(C)cc(C)c2)c(C(C)C)c(=O)[nH]c1=O [Example 66]
EC50 (HIV): < 0.32 µg/mL
S.I.: Selectivity index (CD50/ED50) (HIV): > 245
CC50 [1]: 78.6 µg/mL (≈ 211 µM)

Cc1cc(C)cc(Oc2c(C(C)C)c(=O)[nH]c(=O)n2CC#Cc2ccccc2)c1 [Example 67, 1-(3-phenyl-2-propynyl)-5-isopropyl-6-(3,5-dimethylphenoxy)-2,4-pyrimidinedione]
EC50 (HIV): < 0.009 µg/mL
S.I.: Selectivity index (CD50/ED50) (HIV): > 844
CC50 [1]: 7.6 µg/mL (≈ 19.6 µM)

C/C=C\Cn1c(C(=O)c2cc(C)cc(C)c2)c(CC)c(=O)[nH]c1=O [Example 68, 1-(cis-2-butenyl)-5-ethyl-6-(3,5-dimethylbenzoyl)-2,4-pyrimidinedione]
EC50 (HIV): < 0.032 µg/mL
S.I.: Selectivity index (CD50/ED50) (HIV): > 162
CC50 [1]: 8.21 µg/mL (≈ 25.2 µM)

CCc1c(C(=O)c2cc(C)cc(C)c2)n(C/C=C\c2ccccc2)c(=O)[nH]c1=O [Example 69, 1-(cis-cinnamyl)-5-ethyl-6-(3,5-dimethylbenzoyl)-2,4-pyrimidinedione]
EC50 (HIV): < 0.032 µg/mL
S.I.: Selectivity index (CD50/ED50) (HIV): > 270
CC50 [1]: 8.67 µg/mL (≈ 22.3 µM)

C/C=C\Cn1c(Oc2cc(C)cc(C)c2)c(CC)c(=O)[nH]c1=O [Example 70, 1-(cis-2-butenyl)-5-ethyl-6-(3,5-dimethylphenoxy)-2,4-pyrimidinedione]
EC50 (HIV): < 0.01 µg/mL
S.I.: Selectivity index (CD50/ED50) (HIV): > 7,381
CC50 [1]: 73.8 µg/mL (≈ 235 µM)

C/C=C\Cn1c(Oc2cc(C)cc(C)c2)c(C(C)C)c(=O)[nH]c1=O [Example 71, 1-(cis-2-butenyl)-5-isopropyl-6-(3,5-dimethylphenoxy)-2,4-pyrimidinedione]
EC50 (HIV): < 0.0155 µg/mL
S.I.: Selectivity index (CD50/ED50) (HIV): > 497
CC50 [1]: 7.71 µg/mL (≈ 23.5 µM)

CCOC(=O)C=CCn1c(C(=O)c2cc(C)cc(C)c2)c(CC)c(=O)[nH]c1=O [Example 72, 1-(ethoxycarbonylallyl)-5-ethyl-6-(3,5-dimethylbenzoyl)-2,4-pyrimidinedion]
EC50 (HIV): < 0.01 µg/mL
S.I.: Selectivity index (CD50/ED50) (HIV): > 685
CC50 [1]: 6.85 µg/mL (≈ 17.8 µM)

CCc1c(C(=O)c2cc(C)cc(C)c2)n(CC=CC(=O)OC(C)C)c(=O)[nH]c1=O [Example 73, 1-(isopropoxycarbonylallyl)-5-ethyl-6-(3,5-dimethylbenzoyl)-2,4-pyrimidinedione]
EC50 (HIV): < 0.01 µg/mL
S.I.: Selectivity index (CD50/ED50) (HIV): > 485
CC50 [1]: 4.85 µg/mL (≈ 12.2 µM)

Cc1cc(C)cc(C(=O)c2c(C(C)C)c(=O)[nH]c(=O)n2C/C=C/CN=[N+]=[N-])c1 [Example 74, 1-(4-azido-trans-2-butenyl)-5-isopropyl-6-(3,5-dimethylbenzoyl)-2,4-pyrimidinedione]
EC50 (HIV): < 0.009 µg/mL
S.I.: Selectivity index (CD50/ED50) (HIV): > 954
CC50 [1]: 8.59 µg/mL (≈ 22.5 µM)

CC(=O)OC/C=C/Cn1c(C(=O)c2cc(C)cc(C)c2)c(C(C)C)c(=O)[nH]c1=O [Example 75, 1-(4-acetoxy-trans-2-butenyl)-5-isopropyl-6-(3,5-dimethylbenzoyl)-2,4-pyrimidinedione]
EC50 (HIV): < 0.009 µg/mL
S.I.: Selectivity index (CD50/ED50) (HIV): > 6,487
CC50 [1]: 58.4 µg/mL (≈ 147 µM)
